Reference: patent US6444681B1, “Methods and compositions for treating Raynaud's Phenomenon and scleroderma” (The Ohio State University Research Foundation, priority 2000, dated 2002)
Where two headings read alike, the source gives them in different places.

Columns and labels:
Mouse Tail Artery = assay: Antagonism of UK 14,304-induced vasoconstriction in isolated pressurised distal mouse tail artery; type: cell-based
Excerpt: Male mice (C57BL6) were euthanized by CO2 asphyxiation. Proximal and/or distal segments of tail artery were then rapidly removed and placed in cold Krebs-Ringer bicarbonate solution (in mM): 118.3 NaCl, 4.7 KCl, 1.2 MgSO4, 1.2 KH2PO4, 2.5 CaCl2, 25.0 NaHCO3, 11. glucose (control solution). The small arteries were cannulated at both ends with glass micropipettes, secured using 12-0 nylon monofilament suture and placed in a microvascuiar chamber (Living Systems, Burlington, Vt.). The arteries were maintained at a constant transmural pressure of 60 mmHg in the absence of flow. The chamber was superfused with control solution and maintained at 37° C., pH 7.4, and gassed with 16% O2-5% CO2-balance N2. The chamber was placed on the stage of an inverted microscope (X20, Nikon TMS-F, Japan) connected to a video camera (Panasonic, CCTV camera, Japan). The vessel image was projected onto a video monitor and the internal diameter continuously determined by a video dimension analyzer (Living Systems Instrumentation, Burlington Vt.) and monitored using a BIOPAC (Santa Barbara, Calif.) data acquisition system (Gateway Dimensions Pentium Computer).
Small arteries were allowed to equilibrate for 30-40 min at a transmural pressure (PTM) of 60 mmHg before addition of α1 and α2-AR agonists and antagonists. Concentration-effect curves to the selective α1-AR agonist, phenylephrine, or the selective α2-AR agonist, UK 14,304 (brimonidine, 5-bromo-N-(4,5-dihydro-1H-imidazol-2-yl)-6-quinoxalinamine) were generated by increasing the concentration of the agonists in half-log increments, once the constriction to the previous concentration had stabilized. Following completion of the concentration-effect curve, the influence of the agonists was terminated by repeatedly exchanging the buffer solution and allowing the artery to return to its stable baseline level.
To evaluate the effect of selective α2-AR antagonists on vasoconstriction, concentration-effect curves to UK 14,304 were determined under control conditions and in the presence of the selective α2A-AR antagonist, BRL 44408 (100 and 1000 nM), the selective α2B-AR antagonist ARC 0239 (50 nM) or the selective α2C-AR antagonist MK 912 (0.3 nM) (Table 1). When these receptor antagonists were used, the preparations were incubated for 30 min with the drugs prior to, and also during, exposure of the arteries to the agonists. When analyzing the influence of cold on α-AR responsiveness, the temperature of the superfusate was decreased to 28° C. for 30 min prior to commencing a concentration effect curve to the constrictor agonists. This provides sufficient time for the effect of cold on adrenergic reactivity to stabilize.
Vasomotor responses were expressed as a percentage change in internal diameter (ID) prior to administrating the agent. Because of the phasic behavior of the vasomotion in distal. tail arteries, the signal was electronically averaged (BIOPAC software, smoothing factor of 2000) in order to obtain diameter measurements. Functional data is expressed as means±SEM for n number of experiments, where n equals the number of animals from which blood vessels were studied. Antagonist dissociation constants (KD) were determined either from Arunlakshana and Schild plots or according to the formula: KD=[Ant]/(CR-1), where [Ant] is the concentration of antagonist, and CR the ratio of agonist-concentrations producing equal responses in the presence and absence of the antagonist. […] Statistical evaluation of the data was performed by Student's t-test for either paired or unpaired observations. When more than two means were compared, analysis of variance was used. If a significant F value was found, Scheffe's test for multiple comparisons was employed to identify differences among groups. Values were considered to be statistically different when P was less than 0.05.

[1] = system: small dermal arteries/arterioles from healthy controls and SSc subjects; assay: α2C-AR blockade of UK 14,304 vasoconstriction in human dermal arteries from control and SSc subjects; type: cell-based; conditions: for Kb: Homo sapiens, topical, versus UK 14,304, read-out: calculated dissociation constant, −log Kb (converted)
Description: Arterioles were dissected from the deep dermal plexus of the biopsies and any side branches tied. […] The arterioles were cannulated with glass micropipettes and placed in a microvessel chamber as previously describe. The arterioles were maintained in no-flow state at a constant transmural pressure (PTM)of 40 mmHg. The chamber was superfused with buffer solution (37° C., pH 7.4, gassed with 16% O2-5% CO2-balance N2) and placed on stage of an inverted microscope for continuous monitoring of internal diameter using a video camera and video dimension analyzer.
In order to determine the influence of α2C-AR blockade, paired arteries from each subject were used. […] In the other artery of each pair, increasing concentrations of the α2C-AR antagonist (MK 912) was administered before the response to UK 14,304 was determined.

α-2B = biological target: T1, α-2B (Homo sapiens, UniProt P18089); conditions: cited from earlier work
T1 sequence (P18089 1-450): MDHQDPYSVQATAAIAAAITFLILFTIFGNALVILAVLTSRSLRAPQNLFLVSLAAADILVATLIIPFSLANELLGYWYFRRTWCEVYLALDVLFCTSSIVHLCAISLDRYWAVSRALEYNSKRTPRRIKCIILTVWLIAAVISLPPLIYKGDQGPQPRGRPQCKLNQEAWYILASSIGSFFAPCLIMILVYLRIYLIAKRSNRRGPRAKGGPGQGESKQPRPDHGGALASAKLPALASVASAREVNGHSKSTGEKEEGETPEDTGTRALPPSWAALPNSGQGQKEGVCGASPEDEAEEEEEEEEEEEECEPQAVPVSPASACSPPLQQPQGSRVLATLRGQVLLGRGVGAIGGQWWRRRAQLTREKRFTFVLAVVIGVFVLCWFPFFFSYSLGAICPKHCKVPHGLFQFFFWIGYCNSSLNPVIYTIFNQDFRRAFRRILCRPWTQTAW

α-2C = biological target: T2, α-2C (Homo sapiens, UniProt P18825); conditions: cited from earlier work
T2 sequence (P18825 1-462): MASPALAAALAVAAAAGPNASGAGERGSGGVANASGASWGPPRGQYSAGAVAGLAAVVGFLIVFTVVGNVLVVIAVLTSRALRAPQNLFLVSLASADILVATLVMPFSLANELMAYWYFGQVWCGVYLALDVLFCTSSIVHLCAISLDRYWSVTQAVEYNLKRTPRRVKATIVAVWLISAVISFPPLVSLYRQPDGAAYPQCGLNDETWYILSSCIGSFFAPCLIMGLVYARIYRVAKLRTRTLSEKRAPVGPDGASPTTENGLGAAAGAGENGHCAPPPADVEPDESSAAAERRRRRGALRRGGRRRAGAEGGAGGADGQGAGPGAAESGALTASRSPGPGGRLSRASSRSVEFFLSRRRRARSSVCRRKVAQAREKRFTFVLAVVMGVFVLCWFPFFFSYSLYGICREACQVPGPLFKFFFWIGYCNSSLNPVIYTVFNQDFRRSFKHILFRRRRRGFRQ

- −log KD (Mouse Tail Artery; 28° C. (cold), n=4): 10.9±0.17
- Kd (Mouse Tail Artery; 28° C. (cold), n=4, read-out: KD): 0.014 nM
- Kd (Mouse Tail Artery; 28° C. (cold), versus UK 14,304, distal tail artery, read-out: KD Mouse Tail Artery 28° C.): > 0.014 nM
- Kd (Mouse Tail Artery; 37° C. (warm), versus UK 14,304, distal tail artery, read-out: KD Mouse Tail Artery 37° C.): > 0.3 nM
Compound: CN1CCC2(CCN3CCc4c(oc5ccccc45)C3C2)N(C)C1=O (stereo not drawn) [MK 912]
- effect on cold-induced amplification of the α2-AR response (Mouse Tail Artery; 28° C. versus 37° C., UK 14,304): selectively abolished
- expected shift in concentration-effect curves generated by α2C-AR stimulation (Mouse Tail Artery; based on the Table 1 KD, antagonist at 0.3 nM): ~6 fold
- effect on vasoconstrictor response to UK 14,304 (Mouse Tail Artery; cold (28° C.), BRL 44408 100 and 1000 nM, ARC 0239 50 nM, MK912 3×10^−10M): dramatically inhibited
- effect on vasoconstriction to the α2-AR agonist UK 14,304 (Mouse Tail Artery; warm temperatures (37° C.), BRL 44408 100 and 1000 nM, ARC 239 50 nM, MK 912 0.3 nM): not inhibited
- Kb ([1]; SSc arteries): 0.00123 nM
- Kb ([1]; control arteries): 0.468 nM
- effect on vasoconstrictor response to α2-AR stimulation ([1]; SSc arteries, extremely low concentrations (e.g. 10^−11M)): reduced the vasoconstrictor response
- concentration needed to inhibit responses to UK 14,304 ([1]; control arteries): 10^−9 M
- concentration needed in control arteries relative to SSc arteries ([1]; control versus SSc arteries): 100 fold
- Kd (α-2B): 0.33 nM
- Kd (α-2C): 0.045 nM
